# Key:
# P. aeruginosa MSC01035 = assay: MIC, agar plate dilution method, P. aeruginosa MSC01035; type: cell-based, Pseudomonas aeruginosa; settings: P. aeruginosa MSC01035, ABK-resistant; for MIC: Pseudomonas aeruginosa, read-out: minimal inhibitory concentration (MIC)
# Procedure, shortened: (§1)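 Japan Society of Chemotherapy agar dilution protocol used. MIC reported in μg/mL.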
# S. aureus RN4220/pMS520 = assay: MIC, agar plate dilution method, S. aureus RN4220/pMS520; type: cell-based, Staphylococcus aureus; settings: for MIC: Staphylococcus aureus, MRSA, read-out: minimal inhibitory concentration (MIC), S. aureus RN4220/pMS520, MRSA
# Procedure, shortened: as §1
# P. aeruginosa MSC17707 = assay: MIC, agar plate dilution method, P. aeruginosa MSC17707; type: cell-based, Pseudomonas aeruginosa; settings: for MIC: Pseudomonas aeruginosa, MSC17707, P. aeruginosa MSC17707, AMK-resistant, read-out: minimal inhibitory concentration (MIC)
# Procedure, shortened: as §1
# S. marcescens GN6944 = assay: MIC, agar plate dilution method, S. marcescens GN6944; type: cell-based, Serratia marcescens; settings: S. marcescens GN6944, GM-resistant; for MIC: Serratia marcescens, read-out: minimal inhibitory concentration (MIC)
# Procedure, shortened: as §1
# P. aeruginosa PAO1/GN315 = assay: MIC, agar plate dilution method, P. aeruginosa PAO1/GN315; type: cell-based, Pseudomonas aeruginosa; settings: for MIC: Pseudomonas aeruginosa, read-out: minimal inhibitory concentration (MIC), P. aeruginosa PAO1/GN315, AMK-resistant
# Procedure, shortened: as §1
# [1] = system: A. baumannii ATCC BAA-1710; assay: MIC, agar plate dilution method, A. baumannii ATCC BAA-1710; type: cell-based, Acinetobacter baumannii; settings: for MIC: Acinetobacter baumannii, ATCCBAA1710, A. baumannii ATCC BAA-1710, MDRA, read-out: minimal inhibitory concentration (MIC)
# Procedure, shortened: as §1
# S. marcescens TH-0447 = assay: MIC, agar plate dilution method, S. marcescens TH-0447; type: cell-based, Serratia marcescens; settings: for MIC: Serratia marcescens, TH0447, S. marcescens TH-0447, AMK-resistant, read-out: minimal inhibitory concentration (MIC)
# Procedure, shortened: as §1
# E. faecium ATCC19434 = assay: MIC, agar plate dilution method, E. faecium ATCC19434; type: cell-based, Enterococcus faecium; settings: for MIC: Enterococcus faecium, ATCC19434, E. faecium ATCC19434, read-out: minimal inhibitory concentration (MIC)
# Procedure, shortened: as §1
# P. aeruginosa PAO1 = assay: MIC, agar plate dilution method, P. aeruginosa PAO1; type: cell-based, Pseudomonas aeruginosa; settings: for MIC: Pseudomonas aeruginosa, PAO1, P. aeruginosa PAO1, Sensitive bacterium, read-out: minimal inhibitory concentration (MIC)
# Procedure, shortened: as §1
# S. aureus RN4220 = assay: MIC, agar plate dilution method, S. aureus RN4220; type: cell-based, Staphylococcus aureus; settings: for MIC: Staphylococcus aureus, RN4220, S. aureus RN4220, Sensitive bacterium, read-out: minimal inhibitory concentration (MIC)
# Procedure, shortened: as §1
# [2] = system: K. pneumoniae ATCC BAA-2146; assay: MIC, agar plate dilution method, K. pneumoniae ATCC BAA-2146; type: cell-based, Klebsiella pneumoniae; settings: for MIC: Klebsiella pneumoniae, ATCCBAA2146, K. pneumoniae ATCC BAA-2146, NDM-producing strain, read-out: minimal inhibitory concentration (MIC)
# Procedure, shortened: as §1
# S. aureus MF490 = assay: MIC, agar plate dilution method, S. aureus MF490; type: cell-based, Staphylococcus aureus; settings: for MIC: Staphylococcus aureus, MRSA, read-out: minimal inhibitory concentration (MIC)
# Procedure, shortened: as §1
# E. coli JM109/pMW218 = assay: MIC, agar plate dilution method, E. coli JM109/pMW218; type: cell-based, Escherichia coli; settings: for MIC: Escherichia coli, JM109/PMW218, E. coli JM109/pMW218, Sensitive bacterium, read-out: minimal inhibitory concentration (MIC)
# Procedure, shortened: as §1
# [3] = system: K. pneumoniae ATCC BAA-1705; assay: MIC, agar plate dilution method, K. pneumoniae ATCC BAA-1705; type: cell-based, Klebsiella pneumoniae; settings: for MIC: Klebsiella pneumoniae, ATCCBAA1705, K. pneumoniae ATCC BAA-1705, KPC-producing strain, read-out: minimal inhibitory concentration (MIC)
# Procedure, shortened: as §1
Compound,MIC (P. aeruginosa MSC01035),MIC (S. aureus RN4220/pMS520),MIC (P. aeruginosa MSC17707),MIC (S. marcescens GN6944),MIC (P. aeruginosa PAO1/GN315),MIC [1],MIC (S. marcescens TH-0447),MIC (E. faecium ATCC19434),MIC (P. aeruginosa PAO1),MIC (S. aureus RN4220),MIC [2],MIC (S. aureus MF490),MIC (E. coli JM109/pMW218),MIC [3],other results
"CNC1C(O[C@H]2OC(C)[C@@H](NC(=N)N)[C@H](O)C2O)O[C@H]2CC(N)[C@@H](O[C@H]3CC(O)[C@H](N)CC3N)OC2C1O (stereo partly drawn) [Compound S1-q, 4″-deamino-5,6″-dideoxy-4″-guanidinoapramycin]",8 µg/mL,1 µg/mL,8 µg/mL,4 µg/mL,8 µg/mL,16 µg/mL,4 µg/mL,4 µg/mL,4 µg/mL,1 µg/mL,0.5 µg/mL,4 µg/mL,0.5 µg/mL,1 µg/mL,–
"CN[C@@H]1[C@@H](O[C@H]2O[C@H](CO)[C@@H](NC)[C@H](O)[C@H]2O)O[C@H]2C[C@@H](N)[C@@H](O[C@H]3CC[C@H](N)C[C@@H]3N)O[C@@H]2[C@@H]1O [Compound T2-a, 5,6-dideoxy-4″-N-methylapramycin]",–,–,–,–,–,–,–,–,–,–,–,–,–,–,"minimal inhibitory concentration (MIC) (P. aeruginosa MSC01035): 4 µg/mL; minimal inhibitory concentration (MIC) (S. aureus RN4220/pMS520; S. aureus RN4220/pMS520, MRSA): 1 µg/mL; minimal inhibitory concentration (MIC) (P. aeruginosa MSC17707; P. aeruginosa MSC17707, AMK-resistant): 4 µg/mL; minimal inhibitory concentration (MIC) (S. marcescens GN6944): 4 µg/mL; minimal inhibitory concentration (MIC) (P. aeruginosa PAO1/GN315; P. aeruginosa PAO1/GN315, AMK-resistant): 4 µg/mL; minimal inhibitory concentration (MIC) ([1]; A. baumannii ATCC BAA-1710, MDRA): 4 µg/mL; minimal inhibitory concentration (MIC) (S. marcescens TH-0447; S. marcescens TH-0447, AMK-resistant): 4 µg/mL; minimal inhibitory concentration (MIC) (E. faecium ATCC19434; E. faecium ATCC19434): 8 µg/mL; minimal inhibitory concentration (MIC) (P. aeruginosa PAO1; P. aeruginosa PAO1, Sensitive bacterium): 4 µg/mL; minimal inhibitory concentration (MIC) (S. aureus RN4220; S. aureus RN4220, Sensitive bacterium): 2 µg/mL; minimal inhibitory concentration (MIC) ([2]; K. pneumoniae ATCC BAA-2146, NDM-producing strain): 1 µg/mL; minimal inhibitory concentration (MIC) (S. aureus MF490; S. aureus MF490, MRSA): 8 µg/mL; minimal inhibitory concentration (MIC) (E. coli JM109/pMW218; E. coli JM109/pMW218, Sensitive bacterium): 0.5 µg/mL; minimal inhibitory concentration (MIC) ([3]; K. pneumoniae ATCC BAA-1705, KPC-producing strain): 1 µg/mL"
"CNC1C(O[C@H]2OC(CO)[C@@H](NCCN)[C@H](O)C2O)O[C@H]2CC(N)[C@@H](O[C@H]3CC[C@H](N)CC3N)OC2C1O (stereo partly drawn) [Compound T2-b, 4″-N-(2-aminoethyl)-5,6-dideoxyapramycin]",16 µg/mL,4 µg/mL,8 µg/mL,8 µg/mL,8 µg/mL,8 µg/mL,8 µg/mL,16 µg/mL,8 µg/mL,4 µg/mL,2 µg/mL,8 µg/mL,1 µg/mL,2 µg/mL,–
"CNC1C(O[C@H]2OC(CO)[C@@H](NCCCN)[C@H](O)C2O)O[C@H]2CC(N)[C@@H](O[C@H]3CC[C@H](N)CC3N)OC2C1O (stereo partly drawn) [Compound T2-c, 4″-N-(3-aminopropyl)-5,6-dideoxyapramycin]",8 µg/mL,2 µg/mL,4 µg/mL,4 µg/mL,4 µg/mL,4 µg/mL,8 µg/mL,8 µg/mL,4 µg/mL,2 µg/mL,1 µg/mL,8 µg/mL,1 µg/mL,1 µg/mL,–
"CNC1C(O[C@H]2OC(CO)[C@@H](NC(CN)CN)[C@H](O)C2O)O[C@H]2CC(N)[C@@H](O[C@H]3CC[C@H](N)CC3N)OC2C1O (stereo partly drawn) [Compound T2-d, 4″-N-(1,3-diaminopropan-2-yl)-5,6-dideoxyapramycin]",8 µg/mL,1 µg/mL,8 µg/mL,8 µg/mL,4 µg/mL,8 µg/mL,8 µg/mL,4 µg/mL,4 µg/mL,2 µg/mL,2 µg/mL,4 µg/mL,1 µg/mL,2 µg/mL,–
"CNC1C(O[C@H]2OC(CO)[C@@H](NC(=N)N)[C@H](O)C2O)O[C@H]2CC(N)[C@@H](O[C@H]3CC[C@H](N)CC3N)OC2C1O (stereo partly drawn) [Compound T2-e, 4″-deamino-5,6-dideoxy-4″-guanidinoapramycin]",8 µg/mL,0.5 µg/mL,4 µg/mL,2 µg/mL,4 µg/mL,4 µg/mL,4 µg/mL,4 µg/mL,4 µg/mL,1 µg/mL,0.5 µg/mL,2 µg/mL,0.5 µg/mL,1 µg/mL,–

# — US11135234B2, “Effective aminoglycoside antibiotic for multidrug-resistant bacteria” (MICROBIAL CHEMISTRY RESEARCH FOUNDATION, priority 2015, dated 2021)
